Assay: recombinant UMI read abundance after kanamycin selection (control-corrected) (log10(CPM+1)); higher = more efficient recombination; extreme values may be limits of the assay; sequences stand for … in AGTGCAGAGAAAATCGGCCAGTTTTCTCTGCCTGCAGTCCGCATGCCGTGGGACCCCTTGGGTTCTAACCTGTTGCCTAGATTTATGCAGCGGACTGCCTTTCTCCCAAAGTGATAAACCGG…AGGTTGGTTTCACT; site = the 11-nt donor
In short: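 For the IS621 bridge recombinase, a pooled Escherichia coli screen tested donor and donor-binding-loop pairs. Cells received the pair library together with a target plasmid encoding a fixed target and T7-inducible recombinase, then went onto IPTG (0.07 mM) plus kanamycin or unselected plates in duplicate. After PCR across the donor–target junction and sequencing, recombinant UMI counts were normalized to CPM, averaged, and scaled by control-derived factors. Each value is given as log10(CPM+1).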
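Note: IS621 bridge recombinase in Escherichia coli cells against a fixed T5 target plasmid.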

| Sequence | recombinant UMI read abundance (log10) |
| --- | --- |
| GTGCATGCATGGACCGGTTTTCCCGGTAATCCGTATTTGAT (site GTGCATGCTAG) | 0.649 |
| GTGCATGCATGGACCGGTTTTCCCGGTAATCCGTATTTGAT (site GTGCATGCTAT) | 2.34 |
| GTGCATGCATGGACCGGTTTTCCCGGTAATCCGTATTTGGG (site GTGCATGCTAC) | 0.00412 |
| GTGCATGCATGGACCGGTTTTCCCGGTAATCCGTATTTGGG (site GTGCATGCTCC) | 0.746 |
| GTGCATGCATGGACCGGTTTTCCCGGTAATCCGTATTTGGG (site GTGCATGCTGC) | 0 |
| GTGCATGCATGGACCGGTTTTCCCGGTAATCCGTATTTGGG (site GTGCATGCTTC) | 0.0162 |
| GTGCATGCATGGACCGGTTTTCCCGGTAATCCGTATTTGTT (site GTGCATGCTAA) | 2.04 |
| GTGCATGCATGGACCGGTTTTCCCGGTAATCCGTATTTGTT (site GTGCATGCTAC) | 0.0189 |
| GTGCATGCATGGACCGGTTTTCCCGGTAATCCGTATTTGTT (site GTGCATGCTAG) | 1.48 |
| GTGCATGCATGGACCGGTTTTCCCGGTAATCCGTATTTGTT (site GTGCATGCTAT) | 1.31 |
| GTGCATTCATGGACCGGTTTTCCCGGTAATCCGTATTTGGT (site GTGCATACTAC) | 0.361 |
| GTGCATTCATGGACCGGTTTTCCCGGTAATCCGTATTTGGT (site GTGCATCCTAC) | 0.0125 |
| GTGCATTCATGGACCGGTTTTCCCGGTAATCCGTATTTGGT (site GTGCATGCTAC) | 0 |
| GTGCATTCATGGACCGGTTTTCCCGGTAATCCGTATTTGGT (site GTGCATTCTAC) | 1.99 |
| GTGCCTGCATGGACCGGTTTTCCCGGTAATCCGTATTTGGT (site GTGCATGCTAC) | 0.0028 |
| GTGCCTGCATGGACCGGTTTTCCCGGTAATCCGTATTTGGT (site GTGCCTGCTAC) | 0.328 |
| GTGCCTGCATGGACCGGTTTTCCCGGTAATCCGTATTTGGT (site GTGCGTGCTAC) | 0.00453 |
| GTGCCTGCATGGACCGGTTTTCCCGGTAATCCGTATTTGGT (site GTGCTTGCTAC) | 0.00506 |
| GTGCTCACATGGACCGGTTTTCCCGGTAATCCGTATTTGAT (site GAGCTCACTAT) | 0.557 |
| GTGCTCACATGGACCGGTTTTCCCGGTAATCCGTATTTGAT (site GCGCTCACTAT) | 0.322 |
| GTGCTCACATGGACCGGTTTTCCCGGTAATCCGTATTTGAT (site GGGCTCACTAT) | 0.0156 |
| GTGCTCACATGGACCGGTTTTCCCGGTAATCCGTATTTGAT (site GTGCTCACTAT) | 1.9 |
| GTGCTTACATGGACCGGTTTTCCCGGTAATCCGTATTTGGC (site GTGCTTACTGC) | 1.9 |
| GTGGAGCCATGGACCGGTTTTCCCGGTAATCCGTATTTGAT (site GTGGAGCCTAT) | 0.00342 |
| GTGGATACATGGACCGGTTTTCCCGGTAATCCGTATTTGTG (site GTGGATACTCA) | 1.92 |

| Sequence | recombinant UMI read abundance (log10) |
| --- | --- |
| GTGGGGGCATGGACCGGTTTTCCCGGTAATCCGTATTTGTG (site GTGGAGGCTCA) | 1.07 |
| GTGGGGGCATGGACCGGTTTTCCCGGTAATCCGTATTTGTG (site GTGGCGGCTCA) | 0.0124 |
| GTGGGGGCATGGACCGGTTTTCCCGGTAATCCGTATTTGTG (site GTGGGGGCTCA) | 0.984 |
| GTGGGGGCATGGACCGGTTTTCCCGGTAATCCGTATTTGTG (site GTGGTGGCTCA) | 0.0315 |
| GTGGGTTCATGGACCGGTTTTCCCGGTAATCCGTATTTGCA (site GTGGGTTCTTG) | 2.55 |
| GTGGTTCCATGGACCGGTTTTCCCGGTAATCCGTATTTGGT (site GTAGTTCCTAC) | 0.553 |
| GTGGTTCCATGGACCGGTTTTCCCGGTAATCCGTATTTGGT (site GTCGTTCCTAC) | 0 |
| GTGGTTCCATGGACCGGTTTTCCCGGTAATCCGTATTTGGT (site GTGGTTCCTAC) | 0.0114 |
| GTGGTTCCATGGACCGGTTTTCCCGGTAATCCGTATTTGGT (site GTTGTTCCTAC) | 0.0137 |
| GTGTATGCATGGACCGGTTTTCCCGGTAATCCGTATTTGGT (site GTGAATGCTAC) | 0.483 |
| GTGTATGCATGGACCGGTTTTCCCGGTAATCCGTATTTGGT (site GTGCATGCTAC) | 1.24 |
| GTGTATGCATGGACCGGTTTTCCCGGTAATCCGTATTTGGT (site GTGGATGCTAC) | 0 |
| GTGTATGCATGGACCGGTTTTCCCGGTAATCCGTATTTGGT (site GTGTATGCTAC) | 2 |
| GTGTCATCATGGACCGGTTTTCCCGGTAATCCGTATTTGCA (site GTGTCATCTTG) | 0.804 |
| GTGTTGCCATGGACCGGTTTTCCCGGTAATCCGTATTTGGC (site GTGTTGCCTGC) | 0 |
| GTGTTTACATGGACCGGTTTTCCCGGTAATCCGTATTTGCG (site GTGTTTACTCG) | 1.66 |
| GTTAACTCATGGACCGGTTTTCCCGGTAATCCGTATTTGAA (site GTTAACTCTTT) | 1.85 |
| GTTAAGGCATGGACCGGTTTTCCCGGTAATCCGTATTTGAG (site GTTAAGGCTCT) | 1.41 |
| GTTACAACATGGACCGGTTTTCCCGGTAATCCGTATTTGGC (site GTTAAAACTGC) | 0.0108 |
| GTTACAACATGGACCGGTTTTCCCGGTAATCCGTATTTGGC (site GTTACAACTGC) | 0 |
| GTTACAACATGGACCGGTTTTCCCGGTAATCCGTATTTGGC (site GTTAGAACTGC) | 0 |
| GTTACAACATGGACCGGTTTTCCCGGTAATCCGTATTTGGC (site GTTATAACTGC) | 0 |
| GTTACGTCATGGACCGGTTTTCCCGGTAATCCGTATTTGTA (site GTTACGTCTTA) | 1.22 |
| GTTACTGCATGGACCGGTTTTCCCGGTAATCCGTATTTGCC (site GATACTGCTGG) | 0 |
| GTTACTGCATGGACCGGTTTTCCCGGTAATCCGTATTTGCC (site GCTACTGCTGG) | 0 |

| Sequence | recombinant UMI read abundance (log10) |
| --- | --- |
| GTTACTGCATGGACCGGTTTTCCCGGTAATCCGTATTTGCC (site GGTACTGCTGG) | 0.914 |
| GTTACTGCATGGACCGGTTTTCCCGGTAATCCGTATTTGCC (site GTTACTGCTGG) | 1.83 |
| GTTAGCTCATGGACCGGTTTTCCCGGTAATCCGTATTTGTG (site GTTAGCTCTCA) | 0.415 |
| GTTAGTACATGGACCGGTTTTCCCGGTAATCCGTATTTGGC (site GTTAGAACTGC) | 0 |
| GTTAGTACATGGACCGGTTTTCCCGGTAATCCGTATTTGGC (site GTTAGCACTGC) | 0 |
| GTTAGTACATGGACCGGTTTTCCCGGTAATCCGTATTTGGC (site GTTAGGACTGC) | 0 |
| GTTAGTACATGGACCGGTTTTCCCGGTAATCCGTATTTGGC (site GTTAGTACTGC) | 0.861 |
| GTTATACCATGGACCGGTTTTCCCGGTAATCCGTATTTGCT (site GTTATACCTAG) | 0 |
| GTTATAGCATGGACCGGTTTTCCCGGTAATCCGTATTTGTC (site GTTATAGCTGA) | 2.53 |
| GTTCCAACATGGACCGGTTTTCCCGGTAATCCGTATTTGTA (site GATCCAACTTA) | 0.0199 |
| GTTCCAACATGGACCGGTTTTCCCGGTAATCCGTATTTGTA (site GCTCCAACTTA) | 0.287 |
| GTTCCAACATGGACCGGTTTTCCCGGTAATCCGTATTTGTA (site GGTCCAACTTA) | 0.0991 |
| GTTCCAACATGGACCGGTTTTCCCGGTAATCCGTATTTGTA (site GTTCCAACTTA) | 0.437 |
| GTTCCTACATGGACCGGTTTTCCCGGTAATCCGTATTTGCT (site GTTCCTACTAG) | 0.774 |
| GTTCGAACATGGACCGGTTTTCCCGGTAATCCGTATTTGGC (site GTTAGAACTGC) | 0 |
| GTTCGAACATGGACCGGTTTTCCCGGTAATCCGTATTTGGC (site GTTCGAACTGC) | 0.869 |
| GTTCGAACATGGACCGGTTTTCCCGGTAATCCGTATTTGGC (site GTTGGAACTGC) | 0 |
| GTTCGAACATGGACCGGTTTTCCCGGTAATCCGTATTTGGC (site GTTTGAACTGC) | 0 |
| GTTCGACCATGGACCGGTTTTCCCGGTAATCCGTATTTGTG (site GTTCGACCTCA) | 0.0309 |
| GTTCGAGCATGGACCGGTTTTCCCGGTAATCCGTATTTGCA (site ATTCGAGCTTG) | 1.31 |
| GTTCGAGCATGGACCGGTTTTCCCGGTAATCCGTATTTGCA (site CTTCGAGCTTG) | 0.898 |
| GTTCGAGCATGGACCGGTTTTCCCGGTAATCCGTATTTGCA (site GATCGAGCTTG) | 0.258 |
| GTTCGAGCATGGACCGGTTTTCCCGGTAATCCGTATTTGCA (site GCTCGAGCTTG) | 1.25 |
| GTTCGAGCATGGACCGGTTTTCCCGGTAATCCGTATTTGCA (site GGTCGAGCTTG) | 0.00484 |
| GTTCGAGCATGGACCGGTTTTCCCGGTAATCCGTATTTGCA (site GTACGAGCTTG) | 1.97 |
